In brackets after ≈: the same amount, converted by molar mass. Read-outs that look alike come from different tables or passages of the source.
Assays:
[1] = test system: collagen-induced arthritis (CIA) in female Lewis rats; assay: Collagen-induced arthritis in rats, paw swelling, PK/PD/DIS progression model; type: in vivo, rat; conditions: for decrease of relative paw swelling: at the last observation time point, once daily from day 20: rolipram 10 mg kg^−1 IP, GRMS-55 50 mg kg^−1 IP, (±)-LSF 80 mg kg^−1 SC
Description: The emulsion of collagen was prepared according to the Protocol for the Successful Induction of Collagen-Induced Arthritis (CIA) in Rats (Chondrex Inc., 2015). Porcine type II collagen dissolved in 0.05 M acetic acid was emulsified with incomplete Freund’s adiuvant (Sigma Aldrich, Germany) using an Omni TH Homogenizer (Omni International, Inc., USA) consisting of a blade with 5 mm diameter. The collagen solution was previously mixed with IFA at a low speed for 1 min and then at the highest speed for 2 min. Then emulsion was being cooled for 5 min in an ice water bath. The emulsification process was repeated 3 times to obtain a stiff emulsion. The emulsion was then transferred into a Hamilton glass syringe, kept at 4°C, and used within 2 h.
At a day 0 of the experiment animals were subcutaneously (SC) injected at the base of the tail with 200 μL of the emulsion using a 27 gauge × 5/8″ needle and Hamilton syringe. At day 7 after the initial immunization, a booster injection with 100 μL of emulsion was performed. Ninety % of rats developed symptoms of disease (paw swelling >150% of day 0) at day 20 of the experiment. At this day, diseased animals were randomly divided into five groups (n = 6). […] One investigated group received (±)-LSF dissolved in saline at an SC dose of 80 mg kg^−1 once daily. The corresponding control groups were administered with appropriate volumes of vehicles IP or SC. At day 40 animals were sacrificed. Hind paws of rats were taken and immersed into 4% buffered formalin solution for a subsequent histological analysis. Blood samples were collected and allowed to clot for 20 min and then centrifuged at 2000 x g for 15 min. Serum samples were collected and frozen at -80°C.
Paw edema of arthritic rats was assessed as swelling of the rat hind paws. Measurements of paws were performed using a digital caliper according to the procedure described by Earp et al. ([18]). Each hind leg was measured at two sections, i.e., paw and ankle, and each section was measured at two places (side-to-side and top-to-bottom). The area of each section (elliptical in shape) was calculated from the following equation:2 Area=π·a·b/4 where (a) is side-to-side diameter of the ellipse and (b) is top-to-bottom diameter of the ellipse. Paw and ankle section areas of each leg were subsequently added to obtain one overall measure for the rat hind paw (Areaoverall). Each of these measures was normalized to the same hind paw area measured at day 0 of the experiment (Areazero) to reduce variation in the disease progression resulting from differences in paw size of each rat. Relative paw swelling (Paw) was calculated according to the equation:3 Paw=Areaoverall/Areazero
Paw size was measured at days 0, 5, 7, 11, 15, 18, 20, 22, 26, 30, 33, and 36 after the first immunization. […]

[2] = Pharmacokinetics in female Lewis rats; type: in vivo, rat; conditions: for fraction of the dose absorbed (F): calculated from Eq. 4
Description: The same vehicles as these in pharmacodynamic studies for each compound and route of administration were used. Rats were implanted with catheters into the jugular vein and after a two-day period they were administered with the investigated compounds by the listed above routes of administration. […] Samples were subsequently centrifuged at 3000 × g for 10 min. Plasma was stored at −80°C until analysis.
A detailed description of these methods has been provided in the supplementary materials.
Firstly, the concentration-time data collected for each individual compound from one of the investigated rat strains (Wistar or Lewis) were subjected to a non-compartmental analysis (NCA). Subsequently, pharmacokinetic models were developed for each investigated compound and strain of rat. One- and two- compartment models with linear or non-linear elimination were tested. […] The final models were chosen based on the goodness-of-fit criteria, such as Akaike Information Criterion (AIC), Schwarz Bayesian Criterion (SBC), weighted sum of squared residuals (WSSR), a visual inspection of fitting, and precision of estimated parameters expressed as coefficients of variation % (CVs%). NCA analysis was performed in Phoenix WinNonlin v. 7.0 (Pharsight Corp., a Certara Company, Princeton, New Jersey). Pharmacokinetic model parameters were estimated in ADAPT 5 software (BMSR, Los Angeles, CA) using the weighted least squares algorithm. Fraction of the dose absorbed (F) following an extravascular (EV) administration was calculated according to the Eq. 4:4 F=AUC0−tEV·DIV/AUC0−tIV·DEV where AUC0-t is the area under concentration versus time curve from 0 to the last measured point and D is dose.
The route of (±)-LSF administration was selected based on the results of our recent study, where SC route of administration was recognized as the most preferential for this compound ([20]). The concentration-time data for each of the investigated compounds were simultaneously fitted to obtain a single set of pharmacokinetic parameters.
The remaining symbols and parameters have been explained and defined in Fig. 2 and Table II.
Then, the samples were extracted with 1 mL of dichloromethane for 20 min using a VXR Vibrax shaker (IKA, Germany). Subsequently, all tubes were centrifuged (10 000×g, 8 min) using EBA 12 R centrifuge (Hettich, Germany). Organic layers were collected and transferred to clear propylene tubes and evaporated in water bath under a gentle stream of nitrogen at 37°C. Dry residues were then dissolved in 100 μL of mobile phase and subjected to the HPLC analysis. The HPLC system (LaChrom Elite, Merck-Hitachi, Germany) consisted of an L-2130 pump, an L-2200 autosampler, and an L-2420 UV-VIS detector. EZChrome Elite v. 3.2 (Merck-Hitachi, Germany) computer program was used for data acquisition and integration. The separation of GRMS-55 was performed using a LiChrospher 100 RP-18 (250×4 mm) column with a particle size of 5 μm protected with a LiChroCART (4×4 mm, RP-18) guard column (Merck, Germany). […] The separation of both investigated compounds was performed at ambient temperature. […] In turn, the retention time of GRMS-55 was 9.2 min. and that of its IS was 5.3 min.

[3] = Rattus norvegicus, 480 h, read-out: IC50, concentration producing 50% of maximal inhibition (CIA progression), Final estimate (CV%)
[4] = rat, plasma, other: GRMS-55 IV and IP, rolipram IP, female Lewis rats, read-out: half-life calculated as ln2·V1/Clt (elimination half-life)

| SMILES | decrease of relative paw swelling [1] [%] | fraction of the dose absorbed (F) ([2]; female Lewis rats, SC administration) [%] | volume of distribution, times lower in female Lewis rats compared to male Wistar rats ([2]; female Lewis vs male Wistar rats) [times] | half-life ([2]; rat, plasma, 80 mg kg^-1, female Lewis rats, SC administration, flip-flop pharmacokinetics, read-out: plasma terminal half-life) [min] | Vd ([2]; rat, plasma, other: IV and SC, female Lewis rats, (±)-LSF IV 40 and SC 80 mg kg^−1, read-out: VLSF, volume of distribution of (±)-LSF, Estimate (CV%)) [L/kg] | k el ([2]; rat, plasma, other: IV and SC, female Lewis rats, (±)-LSF IV and SC, read-out: kd, overall parent elimination rate constant, Estimate (CV%) (converted)) [s⁻¹] | IC50 at 50 mg/kg [1, 3] [µg/mL] | fraction of the dose absorbed (F) ([2]; female Lewis rats, IP administration) [%] | half-life [2, 4] [min] | IC50 [1, 3] [µg/mL] | Vd/F ([2]; female, Lewis, rat, plasma, ip, 10 mg/kg, read-out: V(ROL)/F, volume of distribution divided by fraction absorbed, Estimate (CV%)) [L/kg] |
| --- | --- | --- | --- | --- | --- | --- | --- | --- | --- | --- | --- |
| CC(O)CCCCn1c(=O)c2c(ncn2C)n(C)c1=O (racemic) [(±)-LSF, lisofylline] | 30.5 | 95 | 3.3 | 23 | 0.37 | 0.00353 |  |  |  |  |  |
| Cn1c(=O)c2c(nc(NCCc3ccccc3)n2CCCC(=O)NN=Cc2ccccc2O)n(C)c1=O [GRMS-55, 4-(1,3-Dimethyl-2,6-dioxo-8-(phenethylamino)-2,3,6,7-tetrahydro-1H-purin-7-yl)-N′-(2-hydroxybenzylidene)butanehydrazide] | 31.5 |  |  |  |  |  | 0.26 (≈ 0.516 µM) | 23 | 21 |  |  |
| COc1ccc(C2CNC(=O)C2)cc1OC1CCCC1 (stereo not shown) [Rolipram, rolipram] |  |  |  |  |  |  |  |  | 30 | 0.01 (≈ 0.0363 µM) | 1.02 |
